Assay results from publication PMC4620045 (Journal of pharmacokinetics and pharmacodynamics, 2015).
Read-outs that look alike come from different tables or passages of the source.

Columns and labels:
[1] = system: enzymes responsible for its elimination; conditions: cited from earlier work
[2] = Kidney (renal clearance CLr); fixed to reported GFR value in mice; cited from earlier work
plasma proteins = conditions: cited from earlier work
[3] = monkeys; cited from earlier work
[4] = format: in vivo, BALB/c mice; conditions: male, BALB/c, mouse, iv
[5] = Global PBPK model fitted to mouse plasma and tissue PK data; format: in vivo, mice; conditions: for Nonspecific binding (NSti): mice, model estimate

- AUC(0-inf) ([4]; bone, 0.25 mg/kg): 23.7 µM·h
- Kp ([4]; bone, 0.25 mg/kg): 26.9
- half-life ([4]; bone, 0.25 mg/kg): 277 h
- AUC(0-inf) ([4]; bone, 1 mg/kg): 27.2 µM·h
- Kp ([4]; bone, 1 mg/kg): 1.4
- half-life ([4]; bone, 1 mg/kg): 173 h
- AUC(0-inf) ([4]; kidney, 0.25 mg/kg): 24.7 µM·h
- half-life ([4]; kidney, 0.25 mg/kg): 59 h
- AUC(0-inf) ([4]; kidney, 1 mg/kg): 180 µM·h
- half-life ([4]; kidney, 1 mg/kg): 204 h
- AUC(0-inf) ([4]; liver, 0.25 mg/kg): 17 µM·h
- half-life ([4]; liver, 0.25 mg/kg): 69 h
- AUC(0-inf) ([4]; liver, 1 mg/kg): 33.3 µM·h
- half-life ([4]; liver, 1 mg/kg): 105 h
- AUC(0-inf) ([4]; lung, 0.25 mg/kg): 39.3 µM·h
- Kp ([4]; lung, 0.25 mg/kg): 44.7
- half-life ([4]; lung, 0.25 mg/kg): 178 h
- AUC(0-inf) ([4]; lung, 1 mg/kg): 60.9 µM·h
- Kp ([4]; lung, 1 mg/kg): 3.1
- half-life ([4]; lung, 1 mg/kg): 133 h
- AUC(0-inf) ([4]; muscle, 0.25 mg/kg): 5.7 µM·h
- Kp ([4]; muscle, 0.25 mg/kg): 6.4
- half-life ([4]; muscle, 0.25 mg/kg): 204 h
- AUC(0-inf) ([4]; muscle, 1 mg/kg): 17.3 µM·h
- Kp ([4]; muscle, 1 mg/kg): 0.9
- half-life ([4]; muscle, 1 mg/kg): 112 h
- AUC(0-inf) ([4]; plasma, 0.25 mg/kg): 0.9 µM·h
- Kp ([4]; plasma, 0.25 mg/kg): 1
- half-life ([4]; plasma, 0.25 mg/kg): 96 h
- AUC(0-inf) ([4]; plasma, 1 mg/kg): 19.4 µM·h
- Kp ([4]; plasma, 1 mg/kg): 1
- half-life ([4]; plasma, 1 mg/kg): 267 h
- AUC(0-inf) ([4]; spleen, 0.25 mg/kg): 103 µM·h
- Kp ([4]; spleen, 0.25 mg/kg): 117
- half-life ([4]; spleen, 0.25 mg/kg): 248 h
- AUC(0-inf) ([4]; spleen, 1 mg/kg): 107 µM·h
- Kp ([4]; spleen, 1 mg/kg): 5.5
- half-life ([4]; spleen, 1 mg/kg): 131 h
- AUC(0-inf) ([4]; whole blood, 0.25 mg/kg): 46.4 µM·h
- Kp ([4]; whole blood, 0.25 mg/kg): 52.8
- half-life ([4]; whole blood, 0.25 mg/kg): 182 h
- AUC(0-inf) ([4]; whole blood, 1 mg/kg): 92 µM·h
- Kp ([4]; whole blood, 1 mg/kg): 4.8
- half-life ([4]; whole blood, 1 mg/kg): 173 h
- Nonspecific binding (NSti) ([5]; Bone): 1.06
- Nonspecific binding (NSti) ([5]; Erythrocyte): 7.57
- Nonspecific binding (NSti) ([5]; Kidney): 9.60
- Nonspecific binding (NSti) ([5]; Liver): 1.54
- Nonspecific binding (NSti) ([5]; Lung): 2.54
- Nonspecific binding (NSti) ([5]; Muscle): 1.17
- Nonspecific binding (NSti) ([5]; Remainder compartment): 96.76
- Nonspecific binding (NSti) ([5]; Spleen): 3.68
- clearance ([5]; male, BALB/c, mouse, liver, intravenous): 0.0063 mL/min
Compound: CC(C)C[C@H](NC(=O)[C@H](Cc1ccccc1)NC(=O)c1cnccn1)B(O)O [Bortezomib]
- Induction or inhibition of enzymes responsible for its elimination [1]: not an inducer or inhibitor
- clearance [2]: 0.28 mL/min
- Plasma protein unbound fraction (fu) (plasma proteins; fixed in PBPK model): 0.17
- Binding to plasma proteins (plasma proteins; linear binding at therapeutic concentrations): approximately 83%
- Renal clearance contribution to elimination [3]: approximately 25%
